The target in assay [1] is T1, hRIPK1 (aa 1-375) fusion protein (Homo sapiens, UniProt Q13546).
T1 construct: hRIPK1 (aa 1-375) fusion protein
T1 sequence (Q13546 1-375): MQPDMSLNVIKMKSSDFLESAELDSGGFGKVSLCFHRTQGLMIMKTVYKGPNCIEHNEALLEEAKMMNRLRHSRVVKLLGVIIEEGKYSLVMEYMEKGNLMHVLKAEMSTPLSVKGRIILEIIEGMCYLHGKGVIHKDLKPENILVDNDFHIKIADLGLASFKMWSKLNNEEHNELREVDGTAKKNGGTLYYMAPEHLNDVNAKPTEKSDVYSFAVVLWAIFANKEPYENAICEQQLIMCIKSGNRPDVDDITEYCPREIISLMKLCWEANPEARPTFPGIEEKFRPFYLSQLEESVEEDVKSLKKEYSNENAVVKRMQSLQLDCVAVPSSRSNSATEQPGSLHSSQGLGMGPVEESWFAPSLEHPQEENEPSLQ
Briefly: ADP-Glo kinase assay: catalytic activity of RIPK1 (autophosphorylation, conversion of ATP to ADP). In kind it is biochemical. The method in brief:
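hRIPK1 (aa 1-375) fusion protein (3.6 μg/ml final) was preincubated 30 min at rt with compound (33300-1.69 nM, 1% DMSO), then 50 μM ATP was added for 240 min at rt. ADP from autophosphorylation was measured by ADP-Glo luminescence and curves fitted by nonlinear regression.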
For orientation: ADP-Glo turns the ADP formed in a reaction into a luminescent signal.

For another assay, the system named is U937 cells. The experiment in a line: Cellular assay in U937 cells: activity of RIPK1 inhibitors on TNFα/zVAD.fmk-induced cell death (necroptosis), CellTiter 96 AQueous (MTS) readout. It counts as cell-based. The conditions noted are these: Homo sapiens, U-937. The method in brief:
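Necroptosis was measured by viable-cell MTS reduction (4 h, absorbance 490 nm) after overnight (18–24 h) 37° C culture. Cell suspensions of U937 cells carried TNFα (100 ng/ml) plus zVAD.fmk (50 μM) before compound was added. A 10-point curve (10 μM–0.26 nM or 1 μM–0.07 nM) was run in duplicate, normalised to the control lacking TNFα/zVAD.fmk.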

By IC50 is commonly meant the concentration that gives 50% inhibition. Low readings indicate higher potency, high ones lower potency. For `N#Cc1cc(F)cc([C@@H]2CCON2C(=O)[C@H]2CC[C@H](Cn3c(=O)oc4ccccc43)CC2)c1` [compound 18, trans-3-fluoro-5-((S)-2-(4-((2-oxobenzo[d]oxazol-3(2H)-yl)methyl)cyclohexane-1-carbonyl)isoxazolidin-3-yl)benzonitrile], the concentration for half-maximal inhibition (IC50) in assay [1] was determined as 19 nM; in the assay on U937 cells, 16 nM.

Turning to `Cc1ncn(C[C@H]2CC[C@H](C(=O)N3OCC[C@H]3c3cc(F)cc(F)c3)CC2)c1C#N` [compound 89, trans-1-((4-((S)-3-(3,5-difluorophenyl)isoxazolidine-2-carbonyl)cyclohexyl)methyl)-4-methyl-1H-imidazole-5-carbonitrile], the results for the IC50 (in assay [1]; in the assay on U937 cells) were 34 nM and 38 nM, respectively.

On to `Cc1cc(C[C@H]2CC[C@H](C(=O)N3OCC[C@H]3c3cnccn3)CC2)cn2ncnc12` [compound 250, trans-[4-[(8-methyl-[1,2,4]triazolo[1,5-a]pyridin-6-yl)methyl]cyclohexyl]-[(3S)-3-pyrazin-2-yl-1,2-oxazolidin-2-yl]methanone], for which the results for the IC50 (in assay [1]; in the assay with U937 cells) were 16 nM and 17 nM, respectively.

For the compound `Cc1nc2cc(F)ccc2n1C[C@H]1CC[C@H](C(=O)N2OCC[C@H]2c2cc(F)cc(F)c2)CC1` [compound 51, trans-((S)-3-(3,5-difluorophenyl)isoxazolidin-2-yl)(4-((5-fluoro-2-methyl-1H-benzo[d]imidazol-1-yl)methyl)cyclohexyl)methanone], the IC50 in assay [1] turned out to be 34 nM; with U937 cells, 17 nM.

For the compound `Cc1ccc([C@@H]2CCON2C(=O)[C@H]2CC[C@H](Cn3nc(C)cc3C)CC2)cc1` [compound 117, trans-(4-((3,5-dimethyl-1H-pyrazol-1-yl)methyl)cyclohexyl)((S)-3-(p-tolyl)isoxazolidin-2-yl)methanone], the values for the 50% inhibitory concentration (IC50) (in assay [1]; with U937 cells) were 35 nM and 54 nM, respectively.

Consider `NC(=O)c1cc2c(ccn2C[C@H]2CC[C@H](C(=O)N3OCC[C@H]3c3cc(F)cc(F)c3)CC2)cc1F` [compound 77, trans-1-((4-((S)-3-(3,5-difluorophenyl)isoxazolidine-2-carbonyl)cyclohexyl)methyl)-5-fluoro-1H-indole-6-carboxamide], for which the concentration for half-maximal inhibition (IC50) in assay [1] is 14 nM; in the assay with U937 cells it was 3 nM.

Consider `Cc1ncc([C@@H]2CCON2C(=O)[C@H]2CC[C@H](Cc3ccnn3C)CC2)cc1F` [compound 404, trans-[(3S)-3-(5-fluoro-6-methylpyridin-3-yl)-1,2-oxazolidin-2-yl]-[4-[(2-methylpyrazol-3-yl)methyl]cyclohexyl]methanone], for which the IC50 in assay [1] was determined as 15 nM; in the assay on U937 cells, 22 nM.

`Cc1cc([C@@H]2CCON2C(=O)[C@H]2CC[C@H](Cn3ccc4c(F)cc(C#N)cc43)CC2)co1` [compound 47, trans-4-fluoro-1-((4-((S)-3-(5-methylfuran-3-yl)isoxazolidine-2-carbonyl)cyclohexyl)methyl)-1H-indole-6-carbonitrile]: the IC50 in assay [1] was found to be 18 nM; with U937 cells, 3 nM.

As for `N#Cc1cc(F)cc([C@@H]2CCON2C(=O)[C@H]2CC[C@H](Cn3ncc4cc(F)ccc43)CC2)c1` [compound 54, trans-3-fluoro-5-((S)-2-(4-((5-fluoro-1H-indazol-1-yl)methyl)cyclohexane-1-carbonyl)isoxazolidin-3-yl)benzonitrile], the IC50 in assay [1] is 21 nM; in the assay on U937 cells, 6 nM.

As for `N#Cc1cc(F)cc([C@@H]2CCON2C(=O)[C@H]2C[C@H](Cn3cnc4cc(F)ccc43)C2)c1` [compound 116, trans-3-fluoro-5-((S)-2-(3-((5-fluoro-1H-benzo[d]imidazol-1-yl)methyl)cyclobutane-1-carbonyl)isoxazolidin-3-yl)benzonitrile], the values for the IC50 (in assay [1]; in the assay on U937 cells) were 57 nM and 491 nM, respectively.

Take `O=C([C@H]1CC[C@H](Cc2cnccn2)CC1)N1OCC[C@H]1c1cnccn1` [compound 246, trans-[(3S)-3-pyrazin-2-ylisoxazolidin-2-yl]-[4-(pyrazin-2-ylmethyl)cyclohexyl]methanone]: the IC50 in assay [1] was determined as 150 nM; in the assay with U937 cells, 918 nM.

For `N#Cc1cc(F)cc([C@@H]2CCON2C(=O)[C@H]2CC[C@H](Cn3cnc4cc(F)ccc43)CC2)c1` [compound 48, trans-3-fluoro-5-((S)-2-(4-((5-fluoro-1H-benzo[d]imidazol-1-yl)methyl)cyclohexane-1-carbonyl)isoxazolidin-3-yl)benzonitrile], the half-inhibitory concentration (IC50) is 25 nM in assay [1] and 15 nM in the assay with U937 cells.

Turning to `O=C([C@H]1CC[C@H](Cc2ccc(CO)c(F)c2)CC1)N1OCC[C@H]1c1cc(F)cc(F)c1` [compound 265, trans-[(3S)-3-(3,5-difluorophenyl)isoxazolidin-2-yl]-[4-[[3-fluoro-4-(hydroxymethyl)phenyl]methyl]cyclohexyl]methanone], the half-maximal inhibitory concentration (IC50) in assay [1] amounted to 8 nM; in the assay on U937 cells it was 1 nM.

As for `Cc1nc2c(F)cc(C[C@H]3CC[C@H](C(=O)N4OCC[C@H]4c4cnccn4)CC3)cn2n1` [compound 340, trans-[4-[(8-fluoro-2-methyl-[1,2,4]triazolo[1,5-a]pyridin-6-yl)methyl]cyclohexyl]-[(3S)-3-pyrazin-2-yl-1,2-oxazolidin-2-yl]methanone], the 50% inhibitory concentration (IC50) in assay [1] is 25 nM; in the assay on U937 cells, 77 nM.

On to `Cc1nnc2c(F)cc(C[C@H]3CC[C@H](C(=O)N4OCC[C@H]4c4ccc(F)cc4)CC3)cn12` [compound 320, trans-[4-[(8-fluoro-3-methyl-[1,2,4]triazolo[4,3-a]pyridin-6-yl)methyl]cyclohexyl]-[(3S)-3-(4-fluorophenyl)isoxazolidin-2-yl]methanone], for which the IC50 in assay [1] amounted to 37 nM; in the assay on U937 cells it was 28 nM.

For the compound `N#Cc1cc(F)cc([C@@H]2CCON2C(=O)[C@H]2CC[C@H](Cc3cc(F)cc(CO)c3)CC2)c1` [Compound 256, trans-3-fluoro-5-[(3S)-2-[4-[[3-fluoro-5-(hydroxymethyl)phenyl]methyl]cyclohexanecarbonyl]isoxazolidin-3-yl]benzonitrile], the IC50 amounted to 15 nM in assay [1] and 1 nM with U937 cells.

As for `CNC(=O)c1cc(F)cc(C[C@H]2CC[C@H](C(=O)N3OCC[C@H]3c3cc(F)cc(C#N)c3)CC2)c1` [compound 164, trans-3-[[4-[(3S)-3-(3-cyano-5-fluoro-phenyl)isoxazolidine-2-carbonyl]cyclohexyl]methyl]-5-fluoro-N-methyl-benzamide], the values for the 50% inhibitory concentration (IC50) (in assay [1]; in the assay with U937 cells) were 5 nM and 7 nM, respectively.

In the case of `O=c1oc2ccccc2n1C[C@H]1CC[C@H](C(=O)N2OCC[C@H]2c2cc(F)cc(F)c2)CC1` [compound 20, trans-3-((4-((S)-3-(3,5-difluorophenyl)isoxazolidine-2-carbonyl)cyclohexyl)methyl)benzo[d]oxazol-2(3H)-one], the half-maximal inhibitory concentration (IC50) in assay [1] came out at 20 nM; with U937 cells, 5 nM.

In the case of `Cc1cc(C[C@H]2CC[C@H](C(=O)N3OCCC3c3cnccn3)CC2)c(C)cn1` (stereo in doubt) [compound 356, trans-[4-(2,5-Dimethyl-pyridin-4-ylmethyl)-cyclohexyl]-((S)-3-pyrazin-2-yl-isoxazolidin-2-yl)-methanone], the figures for the IC50 (in assay [1]; in the assay on U937 cells) were 26 nM and 5 nM, respectively.

For `CNC(=O)c1cc(F)cc(C[C@H]2CC[C@H](C(=O)N3OCC[C@H]3c3cncc(C#N)c3)CC2)c1` [compound 163, trans-3-[[4-[(3S)-3-(5-cyano-3-pyridyl)isoxazolidine-2-carbonyl]cyclohexyl]methyl]-5-fluoro-N-methyl-benzamide], the half-inhibitory concentration (IC50) in assay [1] came out at 5 nM; in the assay with U937 cells, 10 nM.

Regarding `Cc1ccc([C@@H]2CCON2C(=O)[C@H]2CC[C@H](Cc3cc(C)c4ncnn4c3)CC2)cn1` [compound 347, trans-[(3S)-3-(6-methylpyridin-3-yl)-1,2-oxazolidin-2-yl]-[4-[(8-methyl-[1,2,4]triazolo[1,5-a]pyridin-6-yl)methyl]cyclohexyl]methanone], the IC50 was determined as 46 nM in assay [1] and 59 nM in the assay with U937 cells.

As for `N#Cc1cncc([C@@H]2CCON2C(=O)[C@H]2CC[C@H](Cn3cnc4cc(F)c(C#N)cc43)CC2)c1` [compound 64, trans-1-((4-((S)-3-(5-cyanopyridin-3-yl)isoxazolidine-2-carbonyl)cyclohexyl)methyl)-5-fluoro-1H-benzo[d]imidazole-6-carbonitrile], the IC50 in assay [1] worked out at 20 nM; in the assay on U937 cells, 47 nM.

Consider `Cc1cc(C)n(-c2cc(C[C@H]3CC[C@H](C(=O)N4OCC[C@H]4c4cc(F)cc(C#N)c4)CC3)ncn2)n1` [compound 124, trans-3-[(3S)-2-[4-[[6-(3,5-dimethylpyrazol-1-yl)pyrimidin-4-yl]methyl]cyclohexanecarbonyl]isoxazolidin-3-yl]-5-fluoro-benzonitrile], for which the results for the 50% inhibitory concentration (IC50) (in assay [1]; in the assay with U937 cells) were 26 nM and 68 nM, respectively.

As for `Cc1nc2c(C)cc(C[C@H]3CC[C@H](C(=O)N4OCC[C@H]4c4csc(C)n4)CC3)cn2n1` [compound 361, trans-[4-(2,8-Dimethyl-[1,2,4]triazolo[1,5-a]352yridine-6-ylmethyl)-cyclohexyl]-[(S)-3-(2-methyl-thiazol-4-yl)-isoxazolidin-2-yl]-methanone], the concentration for half-maximal inhibition (IC50) in assay [1] is 57 nM; with U937 cells it was 35 nM.

These data come from patent publication US20260158009A1 (GENZYME CORPORATION, priority 2023, published 2026).
